Data as given in US9233138B2, “Compositions for promoting HIV-1 virolysis and methods using same” (Drexel University, priority 2013, dated 2016).
“Also recorded” adds a separate entry of the source. Like-named read-outs stand apart in the source and are kept apart here.

Experiments:
[1] = tested on: HIV-1 BaL pseudotyped virus; format: cell-based; settings: for IC50: read-out: IC50, inhibition of HIV-1 BaL viral entry
[2] = tested on: HIV-1 BaL pseudotyped virus
HIV-1 group M clades = settings: read-out: IC50, antiviral activity against all HIV-1 group M clades; cited from earlier work
Env / gp120 = settings: cited from earlier work
VSV pseudotyped virus [3] = format: cell-based, Vesicular Stomatitis Virus
VSV pseudotyped virus [4] = tested on: VSV pseudotyped virus; parameters: species or system Vesicular Stomatitis Virus
[5] = tested on: fully infectious HIV-1 BaL; assay: Virolysis assay, p24 leakage ELISA, fully infectious virus; settings: FIG. 5; read-out: IC50 for p24 leakage from fully infectious HIV-1 BaL
HOS.T4.R5 cells [6] = tested on: HOS.T4.R5 cells
HIV-1 BaL pseudovirus [7] = settings: 100 nM, 10 to 30 min at 37° C., compared with PBS treated virus
Protocol: The compounds were incubated with the HIV-1 BaL pseudovirus for 30 min at 37° C. before fixing the virions with 0.1% paraformaldehyde and loaded onto a holey carbon 200 mesh grid for TEM analysis. The grids were stained with 1% uranyl acetate and loaded onto a JEM 2100 microscope system (JEOL, Japan) operated at 120 kV. Energy-dispersive X-ray (EDX) spectroscopy was conducted on the sample (blue) and the empty mesh (red) in order to confirm assignment of virion particles.
Transmission electron microscopy (TEM) analysis was conducted to assess the morphology of untreated and D4- and D8-treated virions. Pseudotyped HIV-1 BaL was treated with D4 or D8 at 100 nM from 10 to 30 min at 37° C. The samples were then spun for 2 hours at 16,000 rpm in an ultracentrifuge (Eppendorf) at 4° C. The residual virions were fixed using 0.1% paraformaldehyde for 15 min at 4° C. The paraformaldehyde was filtered using a 100 kDa filter (Millipore), and the virions were resuspended in deionized water. The samples were then loaded onto a lacey carbon 200 mesh grid (Pacific Grid Tech), and the grid was then negatively stained using 2% uranyl acetate. Once the grid was dried, the samples were loaded onto a JEM 2100 microscope system (JEOL, Japan) operated at 120 kV. The virus images and the background mesh were evaluated by energy-dispersive X-ray spectroscopy (EDX) in order to confirm identification of virions. […]

A-MLV pseudotyped virus = format: cell-based, Amphotropic Murine Leukemia Virus
HIV-1 BaL pseudovirus [8] = settings: D4 and D8 50 nM; competitor serial dilution from 0.5 μM
HOS.T4.R5 cells [9] = assay: Cytotoxicity assay with WST-1 reagent; parameters: dose or concentration left out as unconfirmed; settings: 24 hours post-exposure, FIG. 3

Molecule: (G4S)4-MPER [linker(4)-MPER, reference compound]
- virus inactivation accompanying p24 leakage [1]: not associated with equivalent virus inactivation
- p24 leakage ([2]; non-His-tagged peptide, FIG. 13C): Significant p24 leakage

Molecule: microvirin [MVN, reference compound]
- antiviral property / infectivity inhibition of MVN-based DAVEI [1]: only exhibited antiviral property
- virolytic property of MVN-based DAVEI ([2]; FIG. 10C): only exhibited antiviral property
- IC50 (HIV-1 group M clades): 2 to 167 nM
- causes gp120 shedding? (Env / gp120): No
- conformationally activates Env? (Env / gp120): No

Molecule: D4: fusion of CVN and MPER with (Gly4Ser)4-His6 linker: SEQ ID NO:1-(SEQ ID NO:6)4-SEQ ID NO:5-SEQ ID NO:11
- IC50 [1]: 0.58 ± 0.069 nM
- viral entry inhibition, VSV envelope pseudovirus (VSV pseudotyped virus [3]): no significant dose-dependent viral entry inhibition
- IC50 ([2]; HIV-1 BaL pseudovirus, 30 min incubation, relative to 1% Triton X-100 lysed virus, FIG. 4A, read-out: IC50 for viral leakage (p24 release)): 14.2 ± 0.8 nM
- p24 leakage, VSV-envelope control virus (VSV pseudotyped virus [4]): no leakage
- IC50 [5]: 200 ± 22 nM
- cytotoxicity (cell viability, WST-1) (HOS.T4.R5 cells [6]): No statistically significant differences
- virion morphology after treatment (TEM) (HIV-1 BaL pseudovirus [7]): significant morphological differences relative to intact virions

B1: cyanovirin-N (protein)
chain: LGKFSQTCYNSAIQGSVLTSTCERTNGGYNTSSIDLNSVIENVDGSLKWQPSNFIETCRNTQLAGSSELAAECKTRAQQFVSTKINLDDHIANIDGTLKYE
modifications: cyanovirin-N fragment
- IC50 [1]: 0.16 ± 0.031 nM
- viral entry inhibition, VSV envelope pseudovirus (VSV pseudotyped virus [3]): no significant dose-dependent viral entry inhibition
- viral entry inhibition, A-MLV envelope pseudovirus (A-MLV pseudotyped virus): no significant dose-dependent viral entry inhibition
- leakage of intraviral p24 ([2]; at concentrations up to at least 10 μM, FIG. 4A): unable to induce the leakage of intraviral p24
- competition of the virolytic activity of both D4 and D8 (HIV-1 BaL pseudovirus [8]): observed in a dose-dependent fashion
- causes gp120 shedding? (Env / gp120): No
- conformationally activates Env? (Env / gp120): No
- cytotoxicity (cell viability, WST-1) (HOS.T4.R5 cells [9]): no significant cytotoxicity; also recorded: No statistically significant differences
